Columns and labels:
barnyardgrass [1] = assay: Test B pre-/postemergence herbicide test; type: in vivo, Echinochloa crus-galli
How it was run: (§1)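 Flooded paddy rice and barnyardgrass were treated at the 2-leaf stage; upland plantings received compound either on sown seed or on 1- to 4-leaf seedlings. All were kept 13–15 days in a greenhouse and scored visually, 0–100, relative to untreated plants.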

giant foxtail = assay: Test B pre-/postemergence herbicide test; type: in vivo, Setaria faberi
How it was run: (§2)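 Evaluation is visual, comparing treated with control plants on a scale where 0 means no effect and 100 means full control. Treatments were preemergence, or postemergence on seedlings 2–18 cm tall, and held 13–15 days in the greenhouse.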

large crabgrass = assay: Test B pre-/postemergence herbicide test; type: in vivo, Digitaria sanguinalis
How it was run: as §2

ducksalad [2] = assay: Test C flooded paddy test; type: in vivo, Heteranthera limosa
velvetleaf = assay: Test B pre-/postemergence herbicide test; type: in vivo, Abutilon theophrasti
How it was run: as §2

cocklebur = assay: Test B pre-/postemergence herbicide test; type: in vivo, Xanthium strumarium
How it was run: as §1

wild oat = assay: Test B postemergence herbicide test; type: in vivo, Avena fatua
How it was run: (§3)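 After treating 2-leaf paddy plants or 2–18 cm postemergence plants (1 to 4 leaves) with formulated chemical, researchers kept them in a greenhouse for 13–15 days. Effects were judged visually versus controls: 0 indicates none, 100 total control.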

barnyardgrass [3] = assay: Test B flooded paddy test; type: in vivo, Echinochloa crus-galli; conditions: 1000 g ai/ha, visual rating, scale 0 to 100 (0 no effect, 100 complete control), 13 to 15 days
How it was run: as §3

pigweed = assay: Test B pre-/postemergence herbicide test; type: in vivo, Amaranthus retroflexus
How it was run: as §2

[4] = system: small flower umbrella sedge; assay: Test B flooded paddy test; type: in vivo, Cyperus difformis; conditions: 1000 g ai/ha, visual rating, scale 0 to 100 (0 no effect, 100 complete control), 13 to 15 days
How it was run: as §3

Surinam grass = assay: Test B pre-/postemergence herbicide test; type: in vivo, Urochloa decumbens
How it was run: as §2

corn = assay: Test B pre-/postemergence herbicide test; type: in vivo, Zea mays
How it was run: as §2

rice [5] = assay: Test B flooded paddy test; type: in vivo, Oryza sativa; conditions: 1000 g ai/ha, visual rating, scale 0 to 100 (0 no effect, 100 complete control), 13 to 15 days
How it was run: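 Each value is a visual 0–100 response rating taken against controls 13 to 15 days after treatment in the greenhouse. Plants received formulated chemical postemergence at the 1- to 4-leaf stage or, in flooded paddy, at the 2-leaf stage.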

barnyardgrass [6] = assay: Test C flooded paddy test; type: in vivo, Echinochloa crus-galli
How it was run: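 Weeds and wheat were sprayed after emergence, at a height of 2 to 18 cm (1–4 leaves), and paddy barnyardgrass was flooded and treated at two leaves. Assessment took place 12–14 days later in the greenhouse on a 0-to-100 visual control scale. A dash means no result was obtained.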

lambsquarters = assay: Test B pre-/postemergence herbicide test; type: in vivo, Chenopodium album
How it was run: as §2

ducksalad [7] = assay: Test B flooded paddy test; type: in vivo, Heteranthera limosa; conditions: 1000 g ai/ha, visual rating, scale 0 to 100 (0 no effect, 100 complete control), 13 to 15 days
How it was run: as §3

rice [8] = assay: Test C flooded paddy test; type: in vivo, Oryza sativa
How it was run: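 Postemergence sprays applied to plants 2 to 18 cm tall (1- to 4-leaf stage); paddy species grown to 2-leaf stage under flooding. After 12 to 14 days in greenhouse, visual rating versus untreated controls on 0–100 scale (0 no effect, 100 complete control).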

morningglory = assay: Test B pre-/postemergence herbicide test; type: in vivo, Ipomoea coccinea
How it was run: as §1

[9] = system: smallflower umbrella sedge; assay: Test C flooded paddy test; type: in vivo, Cyperus difformis
blackgrass = assay: Test B postemergence herbicide test; type: in vivo, Alopecurus myosuroides
How it was run: as §3

wheat = assay: Test B postemergence herbicide test; type: in vivo, Triticum aestivum; set-up: key to Wheat plant response rating: 0 = no effect, 100 = complete control
How it was run: as §3

[10] = Postemergence, 250 g ai/ha, scale 0 (no effect) to 100 (complete control)
[11] = postemergence, 62 g ai/ha, scale 0 to 100
[12] = 62 g ai/ha, scale 0 to 100 (0 no effect, 100 complete control)
[13] = 125 g ai/ha, scale 0 to 100 (0 no effect, 100 complete control)
[14] = 250 g ai/ha, scale of 0 to 100, 0 is no effect, 100 is complete control
[15] = 500 g ai/ha, visual rating after 12 to 14 days, scale 0 to 100 (0 no effect, 100 complete control)

**Q.** With CCNC(=O)c1cccc(NC(=O)c2cn(C(C)(C)C)nc2C(F)(F)F)c1 [Compound 192] as the molecule, how does the “Barnyardgrass plant response rating” value (barnyardgrass [1]; [10]) read?
**A.** Its value is 10.

**Q.** What about the “Barnyardgrass plant response rating” value (barnyardgrass [1]; [11]) of the same molecule?
**A.** The value was 0.

**Q.** What about the “Foxtail, Giant plant response rating” value (giant foxtail; [10]) of the same molecule?
**A.** Its value is 20.

**Q.** And the “Foxtail, Giant plant response rating” value (giant foxtail; [11])?
**A.** The value was 10.

**Q.** And the “Crabgrass, Large plant response rating” value (large crabgrass; [10])?
**A.** The value was 20.

**Q.** And the “Crabgrass, Large plant response rating” value (large crabgrass; [11])?
**A.** The value was 10.

**Q.** And the “Ducksalad plant response rating” value (ducksalad [2]; [12])?
**A.** Its value is 0.

**Q.** And the “Ducksalad plant response rating” value (ducksalad [2]; [13])?
**A.** Its value is 0.

**Q.** What about the “Ducksalad plant response rating” value (ducksalad [2]; [14]) of the same molecule?
**A.** Its value is 25.

**Q.** What about the “Plant response rating, Ducksalad” value (ducksalad [2]; [15]) of the same molecule?
**A.** The value was 60.

**Q.** And the “Velvetleaf plant response rating” value (velvetleaf; [10])?
**A.** Its value is 50.

**Q.** What about the “Velvetleaf plant response rating” value (velvetleaf; [11]) of the same molecule?
**A.** Its value is 20.

**Q.** And the “Cocklebur plant response rating” value (cocklebur; [10])?
**A.** Its value is 60.

**Q.** And the “Cocklebur plant response rating” value (cocklebur; [11])?
**A.** Its value is 0.

**Q.** What about the “Oat, Wild plant response rating” value (wild oat; [10]) of the same molecule?
**A.** The value was 20.

**Q.** What about the “Oat, Wild plant response rating” value (wild oat; [11]) of the same molecule?
**A.** Its value is 10.

**Q.** And the “Barnyardgrass plant response rating” value (barnyardgrass [3])?
**A.** Its value is 80.

**Q.** What about the “Pigweed plant response rating” value (pigweed; [10]) of the same molecule?
**A.** Its value is 60.

**Q.** What about the “Pigweed plant response rating” value (pigweed; [11]) of the same molecule?
**A.** The value was 30.

**Q.** And the “Sedge, Umbrella plant response rating” value [4]?
**A.** Its value is 80.

**Q.** And the “Surinam Grass plant response rating” value (Surinam grass; [10])?
**A.** Its value is 10.

**Q.** And the “Surinam Grass plant response rating” value (Surinam grass; [11])?
**A.** The value was 10.

**Q.** What about the “Corn plant response rating” value (corn; [10]) of the same molecule?
**A.** The value was 10.

**Q.** What about the “Corn plant response rating” value (corn; [11]) of the same molecule?
**A.** The value was 10.

**Q.** What about the “Rice plant response rating” value (rice [5]) of the same molecule?
**A.** Its value is 70.

**Q.** What about the “Barnyardgrass plant response rating” value (barnyardgrass [6]; [12]) of the same molecule?
**A.** The value was 0.

**Q.** What about the “Barnyardgrass plant response rating” value (barnyardgrass [6]; 125 g ai/ha, scale of 0 to 100, 0 is no effect, 100 is complete control) of the same molecule?
**A.** The value was 0.

**Q.** What about the “Barnyardgrass plant response rating” value (barnyardgrass [6]; [14]) of the same molecule?
**A.** The value was 0.

**Q.** What about the “Plant response rating, Barnyardgrass” value (barnyardgrass [6]; [15]) of the same molecule?
**A.** Its value is 70.

**Q.** What about the “Lambsquarters plant response rating” value (lambsquarters; [10]) of the same molecule?
**A.** Its value is 80.

**Q.** And the “Lambsquarters plant response rating” value (lambsquarters; [11])?
**A.** The value was 70.

**Q.** And the “Ducksalad plant response rating” value (ducksalad [7])?
**A.** Its value is 80.

**Q.** What about the “Rice plant response rating” value (rice [8]; [12]) of the same molecule?
**A.** Its value is 0.

**Q.** What about the “Rice plant response rating” value (rice [8]; [13]) of the same molecule?
**A.** The value was 15.

**Q.** What about the “Rice plant response rating” value (rice [8]; [14]) of the same molecule?
**A.** The value was 45.

**Q.** And the “Plant response rating, Rice” value (rice [8]; [15])?
**A.** Its value is 70.

**Q.** And the “Morningglory plant response rating” value (morningglory; [10])?
**A.** Its value is 100.

**Q.** And the “Morningglory plant response rating” value (morningglory; [11])?
**A.** The value was 60.

**Q.** What about the “Sedge, Umbrella plant response rating” value [9, 12] of the same molecule?
**A.** The value was 70.

**Q.** What about the “Sedge, Umbrella plant response rating” value [9, 13] of the same molecule?
**A.** The value was 75.

**Q.** What about the “Sedge, Umbrella plant response rating” value [9, 14] of the same molecule?
**A.** The value was 85.

**Q.** And the “Plant response rating, Sedge, Umbrella” value [9, 15]?
**A.** Its value is 90.

**Q.** And the “Blackgrass plant response rating” value (blackgrass; [10])?
**A.** Its value is 0.

**Q.** What about the “Blackgrass plant response rating” value (blackgrass; [11]) of the same molecule?
**A.** The value was 0.

**Q.** And the “Wheat plant response rating” value (wheat; 250 g ai/ha, scale 0 to 100, 0 no effect, 100 complete control, preemergence)?
**A.** Its value is 10.

**Q.** And the “Wheat plant response rating” value (wheat; [10])?
**A.** Its value is 0.

**Q.** What about the “Wheat plant response rating” value (wheat; [11]) of the same molecule?
**A.** Its value is 0.
